In EP2873675A1, “Peptide-based peroxidase inhibitors and methods of using same” (The Medical College of Wisconsin, Inc., priority 2013, dated 2015):
Entries after “also recorded” stand apart in the source; their conditions may differ. Positions of bridges follow the written chain, without caps; N, C: chain ends. Non-standard residues stand in square brackets, D forms with d. Residues, ends and D or L forms follow the SMILES beside them. Chains are numbered I, II in the order given.

How the values were obtained:
[1] = test system: MPO; assay: MPO-catalyzed HOCl production (taurine/TMB assay); format: biochemical; conditions: for MPO-catalyzed HOCl production, dose-dependent effects: increasing concentrations
Experimental: (§1) MPO-mediated HOCl Production. MPO (20 nM) was incubated with H2O2 (50 µM), NaCl (150 mM), taurine (5 mM) and increasing concentrations of KYC in phosphate buffer (100 mM, pH 7.4) which also contained diethylene triamine pentaacetic acid (DTPA, 100 µM) to prevent non-specific, divalent metal cation oxidation for 30 min. Reactions were halted by addition of catalase. Chlorotaurine was quantified using the 3,3-,5,5-tetramethylbenzidine (TMB) assay. Briefly, 400 µL of reaction solution was mixed with 100 µL of 2 mM TMB, 100 µM NaI containing 10% dimethylformamide (DMF) in 400 mM acetate buffer (pH 5.4). After 5 min, absorbance (650 nm) was recorded on a UV/Vis spectrophotometer (Agilent Model 8453).
(§2) MPO-catalyzed HOCl Production: MPO (20 nM) was incubated with H2O2 (50 µM), NaCl (150 mM), taurine (5 mM) and increasing concentrations of KYC in a phosphate buffer (100 mM, pH 7.4) containing diethylene triamine pentaacetic acid (DTPA, 100 µM) to prevent non-specific, divalent metal cation oxidation for 30 min. Reactions were halted by addition of catalase (2,000 units/mL). Chlorotaurine was quantified using the TMB assay (66). Briefly, 400 µL of reaction solution was mixed with 100 µL of 2 mM TMB, 100 µM NaI containing 10% dimethylformamide (DMF) in 400 mM acetate buffer (pH 5.4). After 5 min, absorbance (650 nm) was recorded on a UV/Vis spectrophotometer (Agilent Model 8453).

[2] = test system: NADPH oxidase (NOX); assay: PMA-stimulated HL-60 cell superoxide formation (SOD-inhibitable cytochrome C reduction); format: cell-based, human; conditions: cytochrome C assay
Experimental: PMA-induced Superoxide Anion Formation. HL-60 cells were cultured in RPMI 1640 medium containing 10 % FCS (passage 20-50). HL-60 cells were harvested by centrifugation (1000 rpm, 10 min), washed 2X with phosphate buffer (10 mM, pH 7.4) with NaCl (138 mM), KCl (2.67 mM), CaCl2 (0.901 mM), MgCl2 (0.493 mM) and glucose (1mg/ml) to remove culture medium. The HL-60 cells (6 x10^6/0.5ml) were re-suspended in DPBS. After stimulation with PMA (10 µM), the HL-60 cells were incubated with cytochrome C (40 µM) with or without superoxide dismutase at 37°C for 30 min. The reaction was stopped by centrifugation. Cytochrome C reduction was measured at 550 nm on a UV-Vis spectrophotometer (Agilent, Model 8453).
PMA-stimulated HL-60 cell O2^•- Formation: HL-60 cells were harvested by centrifugation (1000 rpm, 10 min), washed twice with DPBS with glucose to remove culture medium. The HL-60 cells (1.2 x10^7/ml) were re-suspended in DPBS with glucose. After stimulation with PMA (10 µM), the HL-60 cells were incubated with cytochrome C (40 µM) with or without superoxide dismutase (500 units/mL) at 37 °C for 10 min and then the HL-60 cells were removed by centrifugation. Cytochrome C reduction in supernatants was measured at 550 nm using a UV-Vis spectrophotometer (Agilent, Model 8453).

[3] = Thiol reduction of KYC disulfide (HPLC); format: physicochemical
Source text: To confirm that KYC oxidation by MPO yields a simple disulfide, we reduced the product using simple thiols such as glutathione (GSH) and dithiothreitol (DTT).

[4] = molecular target: T1, MPO (Homo sapiens, UniProt P05164); assay: MPO-mediated LDL oxidation (conjugated diene formation, absorbance at 234 nm); format: biochemical; conditions: 25 µM; for MPO/H2O2/nitrite-mediated LDL oxidation: H2O2 100 µM, NaNO2 100 µM, MPO 20 nM; for MPO/H2O2-mediated LDL oxidation: in the absence of nitrite
T1 construct: purchased Lee Biosolutions (St. Louis, MO)
T1 sequence (P05164 49-745): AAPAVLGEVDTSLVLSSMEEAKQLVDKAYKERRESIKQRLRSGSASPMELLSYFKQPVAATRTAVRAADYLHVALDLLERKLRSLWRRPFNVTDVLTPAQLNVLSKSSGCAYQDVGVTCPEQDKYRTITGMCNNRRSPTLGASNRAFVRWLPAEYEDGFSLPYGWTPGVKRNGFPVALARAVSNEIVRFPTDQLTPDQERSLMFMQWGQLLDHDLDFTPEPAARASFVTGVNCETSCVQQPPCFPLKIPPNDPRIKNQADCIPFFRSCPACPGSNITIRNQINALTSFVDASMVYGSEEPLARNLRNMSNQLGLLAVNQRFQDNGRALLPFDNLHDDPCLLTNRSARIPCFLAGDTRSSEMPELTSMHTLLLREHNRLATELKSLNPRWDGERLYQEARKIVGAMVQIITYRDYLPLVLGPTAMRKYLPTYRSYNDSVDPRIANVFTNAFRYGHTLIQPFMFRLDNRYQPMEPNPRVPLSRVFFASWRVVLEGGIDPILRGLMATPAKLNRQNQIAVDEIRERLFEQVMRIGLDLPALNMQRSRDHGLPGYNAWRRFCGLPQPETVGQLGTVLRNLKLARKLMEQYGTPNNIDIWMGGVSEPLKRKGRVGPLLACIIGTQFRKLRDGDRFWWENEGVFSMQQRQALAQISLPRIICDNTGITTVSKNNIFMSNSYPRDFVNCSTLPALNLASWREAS
Experimental: (§3) MPO-mediated oxidation of LDL. Reaction mixtures contained LDL (0.15 mg/ml), NaNO2 (100 µM), H2O2 (300 µM), MPO (20 nM) and various concentrations of KYC in a potassium phosphate buffer (100 mM, pH 7.4) containing DTPA (100 µM). LDL oxidation was monitored at 234 nm at room temperature on a HP UV/VIS spectrometer. Absorbance traces represent the average of duplicate experiments.
(§4) MPO-mediated LDL Oxidation. Reaction mixtures contained LDL (0.15 mg/mL), NaNO2 (100 µM), H2O2 (100 µM), MPO (20 nM) and increasing concentrations of KYC in a phosphate buffer (100 mM, pH 7.4) containing DTPA (100 µM). Rates of LDL oxidation were monitored at room temperature at 234 nm, the wavelength maximum for conjugated dienes.
(§5) MPO-mediated LDL Conjugated Diene Formation: Reaction mixtures contained LDL (0.15 mg/mL), NaNO2 (100 µM), H2O2 (100 µM), MPO (20 nM) and increasing concentrations of KYC or equimolar concentrations of various compounds in a phosphate buffer (100 mM, pH 7.4) containing DTPA (100 µM). Rates of LDL conjugated diene formation were determined by following changes in absorbance at 234 nm, the wavelength maximum for conjugated dienes, on a UV-Vis spectrophotometer (Agilent Model 8453) at room temperature.

[5] = test system: MPO; assay: as above; format: biochemical; conditions: 25 µM; H2O2 100 µM, NaNO2 100 µM, MPO 20 nM
Experimental: as §3, §4, §5

[6] = molecular target: T1, MPO; assay: MPO-catalyzed HOCl production (taurine/TMB assay); format: biochemical; conditions: 12.5 µM
Experimental: as §1, §2

[7] = test system: hypertensive rats; conditions: large doses; cited from earlier work
[8] = test system: SS/Mcw rat hearts; assay: Ischemia/reperfusion injury in isolated perfused hearts (Langendorff)
Source text: Ischemia/Reperfusion (I/R) Injury in Isolated Hearts. Rats used in this study received humane care in compliance with the Guide for the Care and Use of Laboratory Animals, by the National Research Council. Rats were maintained on a low salt (0.4% NaCl) diet with unlimited access to water. Environmental influences were minimized by maintaining rats in identical housing conditions. Dahl S (SS/Mcw male rats at 8 weeks of age were used for this study.
Modified Krebs-Henseleit bicarbonate buffer was prepared containing the following components (in mM): 118.5 NaCl, 25.0 NaHCO3, 4.8 KCl, 1.2 MgSO4·6H2O, and 1.2 KH2PO4 (pH 7.4 when gassed with 95% O2-5% CO2) in which the calcium content was 1.8. Glucose (11.1 mM) was added to the perfusate. Before use, all perfusion fluids were filtered through cellulose acetate membranes with a pore size of 5 µm. To this perfusate, drugs (KAA, KYC) were added as needed. Animals were weighed, and heparin was administered intraperitoneally based on weight (150 IU/kg). Anesthesia was induced with pentobarbital sodium (30 mg/kg ip). Once adequate anesthesia was obtained, the abdomen was opened, and the diaphragm was separated from its chest wall attachments and the pericardium opened. The aorta was clamped and the heart excised. The heart was then immediately transferred to the Langendorff apparatus, and the aorta was cannulated and secured using silk ties. Coronary arteries were perfused at constant pressure (80 mmHg) in a retrograde fashion with Krebs buffer. The heart was immersed in a bath containing Krebs buffer at 37.2 +/- 0.1°C to maintain conditions of normothermia. Left ventricular pressure (LVP) was measured isovolumetrically with a transducer connected to a thin, saline-filled latex balloon inserted into the left ventricle through the mitral valve from an incision in the left atrium.
Drug perfusion. After steady-state levels of function were reached, hearts were perfused with HZ2 (Ac-KYC-NH2) or HZ3 (Ac-KWC-NH2) at 50mg/L for 40 min prior to 35 min global ischemia and 2 hour reperfusion. The protocol for perfusing isolated hearts with or without KWC or scramble peptide KAA is described in Fig. 5A.

CC(=O)N[C@H](CCCCN)C(=O)N[C@H](Cc1ccc(O)cc1)C(=O)N[C@H](CS)C(N)=O [Ac-(d)K(d)Y(d)C-amide] (Ac-[dK]-[dY]-[dC]-NH2)
MPO-catalyzed HOCl production, comparison at equimolar concentration ([1]; 12.5 µM): less effective than KYC

CC(=O)N[C@@H](CCCCN)C(=O)N[C@@H](Cc1ccc(O)cc1)C(=O)N[C@@H](CSSC[C@H](NC(=O)[C@H](Cc1ccc(O)cc1)NC(=O)[C@H](CCCCN)NC(C)=O)C(N)=O)C(N)=O [KYC disulfide] (I: Ac-Lys-Tyr-Cys-NH2 / II: Ac-Lys-Tyr-Cys-NH2; disulfide I:3-II:3)
O2•- production in PMA-stimulated HL-60 cells [2]: neither KYC nor KYC disulfide have any significant effect; also recorded: Neither KYC nor KYC disulfide had any significant effect
reduction to KYC monomer by GSH ([3]; 10 mM GSH, 120 min): completely reduced
time to complete reduction to KYC monomer by DTT ([3]; DTT 0.5 mM, room temperature): ≤ 5 min

N[C@@H](CCC(=O)N[C@@H](CS)C(=O)NCC(=O)O)C(=O)O [GSH, glutathione]
MPO/H2O2/nitrite-mediated LDL oxidation [4]: ineffective for inhibiting LDL oxidation
MPO/H2O2-mediated LDL oxidation [4]: inhibited LDL oxidation; also recorded: did not increase LDL oxidation

N-acetyl Lysyltyrosylcyeteine amide [KYS]
MPO/H2O2/nitrite-mediated LDL oxidation [5]: accelerated LDL oxidation
MPO-catalyzed HOCl production, dose-dependent effects [1]: failed to inhibit; also recorded: not an inhibitor

N[C@@H](Cc1c[nH]c2ccccc12)C(=O)O [Trp, tryptophan]
MPO/H2O2/nitrite-mediated LDL oxidation [4]: did not inhibit but actually enhanced LDL oxidation
MPO/H2O2-mediated LDL oxidation [4]: increased MPO-mediated LDL oxidation
MPO-catalyzed HOCl production, comparison at equimolar concentration [6]: effective inhibitor

COc1ccc2[nH]cc(CCNC(C)=O)c2c1 [melatonin]
number of apoptotic cells in the vessel wall [7]: increased the number of apoptotic cells in the vessel wall

N-acetyl Lysylphenylalanylcysteine amid [KFC]
MPO/H2O2/nitrite-mediated LDL oxidation [5]: increased the lag phase and delayed, but did not totally inhibit LDL oxidation
reduction of HOCl detected by the taurine/TMB assay ([1]; 25 µM): 35%
MPO-catalyzed HOCl production, dose-dependent effects [1]: weaker inhibitor of HOCl formation

CC(=O)N[C@@H](CCCCN)C(=O)N[C@@H](Cc1c[nH]c2ccccc12)C(=O)N[C@@H](CS)C(N)=O [KWC, Ac-KWC-amide] (Ac-Lys-Trp-Cys-NH2)
percent recovery of LVDP after I/R injury ([8]; perfusion 40 min prior to 35 min global ischemia and 2 hour reperfusion, untreated 37.1±4.3): 55.3±4.1%
left ventricular developed pressure (LVDP) after I/R injury ([8]; perfusion 40 min prior to 35 min global ischemia and 2 hour reperfusion, untreated 38±3.9): 57.3±4.8 mmHg
increase of coronary flow rates after perfusion into the hearts ([8]; prior to ischemia): more than 20%
percent recovery of coronary flow rates after I/R ([8]; untreated control 49.6±3.4, p<0.05): 65.2±4%

N[C@@H](Cc1ccc(O)cc1)C(=O)O [Tyr, tyrosine]
MPO/H2O2/nitrite-mediated LDL oxidation [4]: accelerated and enhanced LDL oxidation
MPO/H2O2-mediated LDL oxidation [4]: increased MPO-mediated LDL oxidation
MPO-catalyzed HOCl production, comparison at equimolar concentration [6]: little, if any effect
MPO-catalyzed HOCl production, comparison at equimolar concentration ([6]; listed as Tyrosine): little if any effect
